Measured values published in PMC8321398, “The discovery of a novel series of compounds with single-dose efficacy against juvenile and adult Schistosoma species” (PLoS Neglected Tropical Diseases, 2021).
Converted amounts (≈) assume the structure as drawn. “And” between values parts separate entries of the source, which are not always exact repeats. Identical values can stand only once. Like-named read-outs stand apart in the source and are kept apart here.

Legend:
Mouse pharmacokinetics = format: in vivo; settings: for scaled plasma level, fold above the calculated whole blood IC50: 24 h; for AUC(0-inf) / Vd / bioavailability / half-life / concentration at 24 h: male, Swiss albino, plasma; for Vd: read-out: Vss; for bioavailability: 2.5 mg/kg oral, calculated values > 100% shown as 100; for bioavailability / Plasma conc @ 24 h after oral dose: mixture of 5 compounds; for half-life: iv; for concentration at 24 h: oral
Procedure: Routine pharmacokinetics was carried out as previously described [24] with the following modifications: Swiss albino male mice of average weight 30 g with three animals per experiment. The final vehicle was 10% DMSO, 90% 50 mM Na2HPO4 with 0.5% Tween-80. Compounds were dosed singly (at a variety of doses as noted in the text) or more commonly in mixtures of 5 at 1 mg/kg per compound iv into the lateral tail vein or 2.5 mg/kg per compound by oral gavage. ~30 μl blood samples were taken by venepuncture, into heparinized capillary tubes and subsequently transferred into 0.5 ml micro-centrifuge tubes. Collection time points were 5 min (iv only), 15 min, 30 min, 1 h, 2 h, 4 h, 8 h & 24 h. All blood samples were processed for plasma by centrifugation at 4,000 rpm for 10 min at 4°C within half an hour of collection. Plasma samples were stored at -20°C until bioanalysis.
Prior to LC-MS analysis, all samples were extracted using protein precipitation using acetonitrile as the extraction solvent. For each batch of samples, a calibration line spanning an appropriate concentration range was created by spiking the compound of interest into blank matrix. The calibration line included 10 evenly spaced points. […] Where necessary, additional dilution QCs were included to validate the dilution process. Within each batch at least 3 study samples were assayed pre and post dilution to assess whether there was any impact from the presence of dosing vehicle in the samples. A linear regression was performed on peak area response ratios (analyte:IS) and the results used to back-calculate analyte concentrations. A batch of samples were considered acceptable if 75% of the calibration samples and 66% of the standard QC samples were within 20% of nominal. The linear range of the assay was defined by the calibration line ±20% i.e. the maximum reportable concentration was 120% of the highest concentration calibration sample that passed acceptance criteria. A metric plot of the IS response was reviewed to ensure the integrity of the study sample data.

Juvenile S. mansoni = assay: In vitro juvenile (3 week old) S. mansoni worm assay; format: cell-based; settings: Schistosoma mansoni; for EC50: Table 2, in vitro, 120 h incubation
From the text: (§1) The Puerto Rican strain of S. mansoni was maintained in Biomphalaria glabrata and CD1 mice. Oncomelania hupensis (hupensis) infected with S. japonicum (Chinese strain) and Bulinus truncatus (truncatus) infected with Egyptian strain S. haematobium were obtained from BEI Resources, NIAID, NIH. Infection of mice for worm recovery was as previously described except that, whereas cercariae of S. mansoni and S. haematobium were obtained by shedding from infected snails under lights, cercariae of S. japonicum were obtained by gently crushing the snails. Furthermore, adult S. haematobium were recovered after 12 weeks following mouse infection.
(§2) In vitro efficacy was carried out as previously described. In brief, worms were recovered from infected mice by portal perfusion 3 weeks (for juveniles) or 6 weeks (for adults) post-infection using warm perfusion medium (Dulbecco’s Modified Eagle’s Medium [DMEM], 2mM L-glutamine, 100 Units/ml penicillin, 100μg/ml streptomycin, 20mM Hepes, 10 Units/ml heparin [Sigma, UK]). Worms were washed free of red blood cells using the perfusion medium, and finally suspended in complete medium (cDMEM: DMEM, 2mM L-glutamine, 100 Units/ml penicillin, 100μg/ml streptomycin, 10% FCS). The juvenile assays were carried out in 96-well plates, each well containing 6–8 worms in 200 μL cDMEM. The adult worm assay was in 24-well plates, each well containing 3 worm pairs in 1mL cDMEM. Both the juvenile and adult worm cultures were kept at 37° C, in an atmosphere of 5% CO2. Drug effects were determined on day 5 following drug treatment by assessing the viability of individual worms as described in [14].

[1] = In vivo efficacy, mouse model of juvenile (21-day old) S. mansoni infection; settings: female, CD1, plasma, mouse, Juvenile infection, read-out: Plasma conc @24 h (efficacy experiment)
Procedure: Prior to in vivo efficacy experiments, a single animal was given a dose of drug (using the same formulation) that was twice as large as that planned for use in the efficacy experiments and was observed periodically for adverse clinical signs for 24h by trained veterinarians. Adverse clinical signs checked include postural defect, vocalization, oculo-nasal discharge, hypersalivation, change in activity, abnormal gait, respiration and pulse, piloerection, loss of pupillary reflex, eyelid reflex, chromodacryorrhea, reaction to handling, tremor, convulsions, prostration, diarrhoea, cachexia, emaciation. […] In vivo efficacy was assessed in female CD1 mice using methods based on those previously described. Mice were infected subcutaneously with 150 cercariae. Test compounds were suspended in 7% Tween-80 / 3% Ethanol / double distilled water and drug dispersal was facilitated by vortexing and using a sonicating water bath (Formulation “Aqueous”). Alternatively, drugs were first dissolved in DMSO, then diluted with corn oil to give a 1:19 DMSO:corn oil solution/suspension of test compound (Formulation “Corn oil”). Dosing was by oral gavage. Mice in the negative control groups were given the drug suspension vehicle only. Positive controls for treatment of adult, day 42 old, infections were treated with PZQ and those for juvenile, day 21 old, infections with artemether, which unlike PZQ is effective against the juvenile worm infections in mice. During and following treatment, mice were closely observed for any ill effects by staff experienced in animal handling. This involved individuals who were blinded to the treatment groups. Effects they were trained to look for included hunching, immobility, piloerection, subdued behaviour, diarrhoea and loss of body condition. None were seen. Worms were recovered by portal perfusion with citrate saline 8–14 days post treatment and counted. Differences between groups relative to the non-drug treated controls were assessed for statistical significance by Student’s unpaired t-test using GraphPad Prism Software. P values are presented as follows:- ns–P > 0.05 (not significant), * P ≤ 0.05, ** P ≤ 0.01, *** P ≤ 0.001, **** P ≤ 0.0001.
For pharmacokinetic analysis during the in vivo efficacy experiments individual animals were only sampled once. Samples were taken from one animal in each experimental group at each of 1, 4, 8 h and samples from two animals in each group were taken at 24 h.

Adult S. mansoni = assay: In vitro adult S. mansoni worm assay; format: cell-based; settings: Schistosoma mansoni, 120 h incubation
From the text: as §1, §2

[2] = Metabolic stability in mouse hepatocytes; format: in vitro ADME; settings: hepatocytes (suspension); for remaining at 0.5 h, 1 µM: pH 7.4, 30 min incubation, read-out: Mouse hepatocyte % remaining at 30 min; for remaining at 1.5 h, 1 µM: pH 7.4, 90 min incubation, read-out: Mouse hepatocyte % remaining at 90 min
Procedure: 100 μM compound stock solution was prepared from 5 μL of 4 mM stock in DMSO + 195 μL MeCN. Working solution (2 μM compound) was prepared using 10 μL of 100 μM stock + 490 μL buffer pH 7.4 (KHB supplemented with CaCl2, NaHCO3, HEPES, fructose, glycine; pH 7.4).
Working solution (25 μL, 2 μM) was added in duplicate to wells in a 0.5 mL per well, 96 well plate which was preincubated to reach 37°C. Hepatocyte suspension (25 μL) was added to each plate, and the plate incubated (37°C, 95% relative humidity with 5% CO2 supply) under gentle mixing (Thermomixer @300 rpm). After designated time periods, ice-cold MeCN (250 μL) was added with a suitable standard. For T = 0 min, ice-cold MeCN (250 μL) with suitable standard was added to the working solution (2 μM) and hepatocyte suspension (25 μL) added. The plates for each time point were shaken, sonicated for 5 mins and kept at 4°C until the final plate was processed. The plates were centrifuged at 4,000 rpm for 20 min, supernatant (110 μL) was mixed with water (110 μL) and the samples analysed using LC-MS/MS.

Kinetic solubility = format: physicochemical
From the text: Table 4 in vitro, physicochemical and in vivo properties of compounds pictured in Fig 10. | column: Measured physicochemical properties / Kinetic solubility, pH 7.4 (uM); Measured physicochemical properties / Kinetic solubility, FaSSIF (uM); Measured physicochemical properties / Kinetic solubility, FeSSIF (uM)

S. haematobium adult = assay: In vitro adult S. haematobium worm assay; format: cell-based; settings: for EC50: Schistosoma haematobium, S. haematobium, 120 h incubation, read-out: Sh adult EC50; for Potency ratio Sh/Sm: adult EC50 S. haematobium / S. mansoni
From the text: as §1, §2

[3] = 0.5 mg/kg iv, in a mixture of 5 compounds
[4] = 0.5 mg/kg, 0.5 mg/kg iv, in a mixture of 5 compounds, sampled over 24 h
[5] = Table 2, in vitro, read-out: Adult S. mansoni EC50
[6] = pH 7.4, read-out: Kinetic solubility, pH 7.4
[7] = Table 3, S. mansoni, read-out: Sm adult EC50
[8] = oral 12.5 mg/kg, formulation corn oil
[9] = FaSSIF, pH 6.5, read-out: Kinetic solubility, FaSSIF
[10] = FeSSIF, pH 5, read-out: Kinetic solubility, FeSSIF
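For Clobs in this document: three mice per experiment, dosed in 10% DMSO with 50 mM Na2HPO4 buffer plus Tween-80, plasma levels quantified by LC-MS against a calibration line prepared in blank matrix.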
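For F in this document: three mice per experiment, dosed in 10% DMSO with 50 mM Na2HPO4 buffer plus Tween-80, plasma levels quantified by LC-MS against a calibration line prepared in blank matrix.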
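For Vss in this document: three mice per experiment, dosed in 10% DMSO with 50 mM Na2HPO4 buffer plus Tween-80, plasma levels quantified by LC-MS against a calibration line prepared in blank matrix.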
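For scaled plasma level, fold above the calculated whole blood IC50 in this document: three mice per experiment, dosed in 10% DMSO with 50 mM Na2HPO4 buffer plus Tween-80, plasma levels quantified by LC-MS against a calibration line prepared in blank matrix.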

Row | Structure (SMILES) | Clobs (Mouse pharmacokinetics; [3]) [mL/min/kg] | AUC(0-inf) (Mouse pharmacokinetics; [3]) [ng·h/mL] | Vd (Mouse pharmacokinetics; [3]) [L/kg] | bioavailability (Mouse pharmacokinetics) [%] | half-life (Mouse pharmacokinetics; [4]) [h] | EC50 (Juvenile S. mansoni) [nM] | concentration at 24 h ([1]; oral 50 mg/kg, formulation Aq) [ng/mL] | EC50 (Adult S. mansoni; [5]) [nM] | remaining at 0.5 h, 1 µM [2] [%] | remaining at 1.5 h, 1 µM [2] [%] | solubility kinetic at 24 h (Kinetic solubility; [6]) [µM] | EC50 (S. haematobium adult) [nM] | EC50 (Adult S. mansoni; [7]) [nM] | concentration at 24 h [1, 8] [ng/mL] | solubility kinetic at 24 h (Kinetic solubility; [9]) [µM] | solubility kinetic at 24 h (Kinetic solubility; [10]) [µM] | Potency ratio Sh/Sm (S. haematobium adult) | other results
1 | CC(C)c1nc2cnc(-c3ccc(F)c(C(F)(F)F)c3)cn2c1-c1ccc2[nH]ncc2c1F [LSHTM-3604] | 4.33 | 1900 | 3.4 | 60 | 10.5 | 33.2 | 505 | 31.5 | 89 | 80 | 0.834 (≈ 0.381 µg/mL) |  |  |  |  |  |  | scaled plasma level, fold above the calculated whole blood IC50 (Mouse pharmacokinetics; efficacy dose (dose not given)): 9.4 fold; concentration at 24 h (Mouse pharmacokinetics; plasma level after 24 h scaled from […] dose, scaled to the efficacy dose (dose not given), read-out: plasma level after 24 h scaled from 2.5 mg/kg dose): 1430 ng/mL; IC50 (Juvenile S. mansoni; 10 fold the in vitro value (assay run at 10% of whole blood protein), read-out: calculated whole blood IC50): 0.152 µg/mL (≈ 0.332 µM); concentration at 24 h ([1]; oral 25 mg/kg, formulation corn oil): 223 ng/mL; solubility kinetic (Kinetic solubility; FaSSIF, read-out: Kinetic solubility, FaSSIF): 200 µM (≈ 91.5 µg/mL); solubility kinetic (Kinetic solubility; FeSSIF, read-out: Kinetic solubility, FeSSIF): 200 µM (≈ 91.5 µg/mL)
2 | Fc1ccc(-c2cn3c(-c4ccc5[nH]ncc5c4F)c(C(F)(F)F)nc3cn2)cc1C(F)(F)F [LSHTM-3642, 3-(4-fluoro-1H-indazol-5-yl)-6-(4-fluoro-3-(trifluoromethyl)phenyl)-2-(trifluoromethyl)imidazo[1,2-a]pyrazine] | 2.17 | 5500 | 8.7 | 83 |  | 48 |  | 27 |  | 90 | 0.854 (≈ 0.413 µg/mL) | 23 | 27.3 | 1320 | 196 (≈ 94.7 µg/mL) | 197 (≈ 95.2 µg/mL) |  | Plasma conc @ 24 h after oral dose (Mouse pharmacokinetics): 227 ng/mL; concentration at 24 h ([1]; oral 25 mg/kg, formulation Aq): 1700 ng/mL

These reach a lower EC50 (Juvenile S. mansoni). Values come first.

Row | Clobs (Mouse pharmacokinetics; [3]) [mL/min/kg] | AUC(0-inf) (Mouse pharmacokinetics; [3]) [ng·h/mL] | Vd (Mouse pharmacokinetics; [3]) [L/kg] | bioavailability (Mouse pharmacokinetics) [%] | half-life (Mouse pharmacokinetics; [4]) [h] | EC50 (Juvenile S. mansoni) [nM] | concentration at 24 h ([1]; oral 50 mg/kg, formulation Aq) [ng/mL] | EC50 (Adult S. mansoni; [5]) [nM] | remaining at 0.5 h, 1 µM [2] [%] | remaining at 1.5 h, 1 µM [2] [%] | solubility kinetic at 24 h (Kinetic solubility; [6]) [µM] | EC50 (S. haematobium adult) [nM] | EC50 (Adult S. mansoni; [7]) [nM] | concentration at 24 h [1, 8] [ng/mL] | solubility kinetic at 24 h (Kinetic solubility; [9]) [µM] | solubility kinetic at 24 h (Kinetic solubility; [10]) [µM] | Structure (SMILES) | Potency ratio Sh/Sm (S. haematobium adult) | other results
3 |  | 500 | 7.1 | 50 | 7 | 27 | 208 | 46 | 65 | 44 | 12.7 (≈ 5.73 µg/mL) | 17.9 | 46.2 |  |  |  | CC(C)c1nc2cnc(-c3ccc(F)c(C(F)(F)F)c3)cn2c1-c1c(F)cc(O)cc1F [LSHTM-3520] | 0.4 | Clobs (Mouse pharmacokinetics; 0.5 mg/kg iv, in a mixture of 5 compounds, 0.5 mg/kg): 18.3 mL/min/kg and 18 mL/min/kg; scaled plasma level, fold above the calculated whole blood IC50 (Mouse pharmacokinetics; 50 mg/mL (so in the source)): 1.3 fold; scaled plasma level, fold above the calculated whole blood IC50 (Mouse pharmacokinetics; 200 mg/mL (so in the source)): 5.3 fold; Plasma conc @ 24 h after oral dose (Mouse pharmacokinetics; […]): 8.1 ng/mL; concentration at 24 h (Mouse pharmacokinetics; 50 mg/mL, scaled from […] to 50 mg/mL (so in the source), linear kinetics assumed, read-out: plasma level after 24 h scaled from the low-dose oral PK experiment): 160 ng/mL; concentration at 24 h (Mouse pharmacokinetics; 200 mg/mL, scaled from […] to 200 mg/mL (so in the source), linear kinetics assumed, read-out: plasma level after 24 h scaled from the low-dose oral PK experiment): 640 ng/mL; concentration at 24 h ([1]; oral 200 mg/kg, formulation Aq): 1980 ng/mL; half-life at 1 µM ([2]; pH 7.4, calculated from % remaining): 1.25 h
4 | 3.5 | 2400 | 6.4 | 100 | 23.4 | 10.7 |  | 9.7 |  | 94 | 0.264 (≈ 0.141 µg/mL) | 6.5 | 9.7 | 984 | 199 (≈ 106 µg/mL) | 200 (≈ 107 µg/mL) | Fc1ccc(-c2cn3c(-c4ccc5[nH]ncc5c4F)c(C(F)(F)F)nc3cn2)cc1C(F)(F)C(F)(F)F [LSHTM-3645] | 0.7 | concentration at 24 h ([1]; oral 6.25 mg/kg, formulation corn oil): 708 ng/mL
5 | 1.5 | 6200 | 4 | 100 | 37.1 | 21 |  | 15.3 |  | 88 | 0.704 (≈ 0.363 µg/mL) | 9.3 | 15.3 | 879 | 200 (≈ 103 µg/mL) | 196 (≈ 101 µg/mL) | Fc1c(-c2c(C(F)(F)F)nc3cnc(-c4cccc(C(F)(F)C(F)(F)F)c4)cn23)ccc2[nH]ncc12 [LSHTM-3608] | 0.6 | 
6 | 15.7 | 500 | 3.9 | 100 | 6 | 4.1 |  | 5.4 |  | 75 | 0.885 (≈ 0.38 µg/mL) | 3.7 | 5.4 |  | 33.9 (≈ 14.6 µg/mL) | 43.8 (≈ 18.8 µg/mL) | CC(C)c1cc(-c2cn3c(-c4ccc5[nH]ncc5c4F)c(C4CC4)nc3cn2)ccc1F [LSHTM-3686] | 0.7 | half life (Mouse pharmacokinetics; 0.5 mg/kg iv, in a mixture of 5 compounds, sampled over 24 h, 0.5 mg/kg): 6.2 h; concentration at 24 h ([1]; oral 6.25x2 mg/kg (12 h apart), formulation corn oil): 37.2 ng/mL
